“And” between values parts separate entries of the source, which are not always exact repeats. Identical values can stand only once.
Experiments:
L1210 [1] = assay: Compound was evaluated for the growth inhibition of L1210 cells.; format: functional, cell-based; conditions: Mus musculus
[2] = Compound was evaluated for growth inhibition of WI-L2 cells.; format: functional, cell-based; conditions: Homo sapiens, WIL2
Dihydrofolate reductase = molecular target: T1, Dihydrofolate reductase (Homo sapiens, UniProt P00374)
T1 sequence (P00374 whole entry): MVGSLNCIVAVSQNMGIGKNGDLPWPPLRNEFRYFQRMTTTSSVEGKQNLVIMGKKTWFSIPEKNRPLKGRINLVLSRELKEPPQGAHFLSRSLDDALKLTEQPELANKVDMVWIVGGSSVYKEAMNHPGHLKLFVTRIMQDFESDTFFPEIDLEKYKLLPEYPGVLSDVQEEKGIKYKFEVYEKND
Description: Inhibition of dihydrofolate reductase (DHFR) from human cells (WI-L2/M4).

L1210 [3] = assay: In vivo activity against L1210 leukemia cells in mice at a dose of 16 mg/kg and expressed as Survival range in days; format: functional, Mus musculus
L1210 [4] = assay: In vivo activity against L1210 leukemia cells in mice at a dose of 16 mg/kg and expressed as Survival median in days; format: functional, Mus musculus
L1210 [5] = assay: In vivo activity against L1210 leukemia cells in mice at a dose of 32 mg/kg and expressed as Survival median in days; format: functional, Mus musculus
L1210 [6] = assay: Antitumor activity (T/C) evaluated against L1210 leukemia from the median survival time of treated mice (T) over that of control mice (C) at a dose of 8 mg/kg; format: functional, Mus musculus
L1210 [7] = assay: In vivo activity against L1210 leukemia cells in mice at a dose of 8 mg/kg and expressed as Survival median in days; format: functional, Mus musculus
L1210 [8] = assay: In vivo activity against L1210 leukemia cells in mice at a dose of 32 mg/kg and expressed as Survival range in days; format: functional, Mus musculus
L1210 [9] = assay: In vivo activity against L1210 leukemia cells in mice at a dose of 8 mg/kg and expressed as Survival range in days; format: functional, Mus musculus
L1210 [10] = assay: Antitumor activity (T/C) evaluated against L1210 leukemia from the median survival time of treated mice (T) over that of control mice (C) at a dose of 16 mg/kg; format: functional, Mus musculus
L1210 [11] = assay: Antitumor activity (T/C) evaluated against L1210 leukemia from the median survival time of treated mice (T) over that of control mice (C) at a dose of 32 mg/kg; format: functional, Mus musculus
L1210 [12] = assay: In vivo activity against L1210 leukemia cells in mice at a dose of 16 mg/kg and expressed as percent weight change after 7 days; format: functional, Mus musculus
L1210 [13] = assay: In vivo activity against L1210 leukemia cells in mice at a dose of 32 mg/kg and expressed as percent weight change after 7 days; format: functional, Mus musculus
L1210 [14] = assay: In vivo activity against L1210 leukemia cells in mice at a dose of 8 mg/kg and expressed as percent weight change after 7 days; format: functional, Mus musculus
L1210 [15] = assay: In vivo activity against L1210 leukemia cells in mice at a dose of 12 mg/kg and expressed as Survival median in days as experiment 2; format: functional, Mus musculus
L1210 [16] = assay: In vivo activity against L1210 leukemia cells in mice at a dose of 4 mg/kg and expressed as Survival median in days as experiment 1.; format: functional, Mus musculus
L1210 [17] = assay: In vivo activity against L1210 leukemia cells in mice at a dose of 4 mg/kg and expressed as Survival median in days as experiment 3; format: functional, Mus musculus
L1210 [18] = assay: In vivo activity against L1210 leukemia cells in mice at a dose of 12 mg/kg and expressed as Survival median in days as experiment 3; format: functional, Mus musculus
L1210 [19] = assay: In vivo activity against L1210 leukemia cells in mice at a dose of 16 mg/kg and expressed as Survival median in days as experiment 1.; format: functional, Mus musculus
L1210 [20] = assay: In vivo activity against L1210 leukemia cells in mice at a dose of 16 mg/kg and expressed as Survival median in days as experiment 2; format: functional, Mus musculus
L1210 [21] = assay: In vivo activity against L1210 leukemia cells in mice at a dose of 16 mg/kg and expressed as Survival median in days as experiment 3; format: functional, Mus musculus
L1210 [22] = assay: In vivo activity against L1210 leukemia cells in mice at a dose of 20 mg/kg and expressed as Survival median in days as experiment 2; format: functional, Mus musculus
L1210 [23] = assay: In vivo activity against L1210 leukemia cells in mice at a dose of 2 mg/kg and expressed as Survival median in days as experiment 1.; format: functional, Mus musculus
L1210 [24] = assay: In vivo activity against L1210 leukemia cells in mice at a dose of 32 mg/kg and expressed as Survival median in days as experiment 1.; format: functional, Mus musculus
L1210 [25] = assay: Antitumor activity (T/C) evaluated against L1210 leukemia from the median survival time of treated mice (T) over that of control mice (C) at a dose of 4 mg/kg as experiment 1; format: functional, Mus musculus
L1210 [26] = assay: Antitumor activity (T/C) evaluated against L1210 leukemia from the median survival time of treated mice (T) over that of control mice (C) at a dose of 4 mg/kg as experiment 3; format: functional, Mus musculus
L1210 [27] = assay: Antitumor activity (T/C) evaluated against L1210 leukemia from the median survival time of treated mice (T) over that of control mice (C) at a dose of 8 mg/kg as experiment 3; format: functional, Mus musculus
L1210 [28] = assay: In vivo activity against L1210 leukemia cells in mice at a dose of 12 mg/kg and expressed as percent weight change after 7 days as experiment 2; format: functional, Mus musculus
L1210 [29] = assay: In vivo activity against L1210 leukemia cells in mice at a dose of 8 mg/kg and expressed as Survival median in days as experiment 1.; format: functional, Mus musculus
L1210 [30] = assay: In vivo activity against L1210 leukemia cells in mice at a dose of 8 mg/kg and expressed as Survival median in days as experiment 3; format: functional, Mus musculus
L1210 [31] = assay: In vivo activity against L1210 leukemia cells in mice at a dose of 4 mg/kg and expressed as Survival range in days as experiment 1.; format: functional, Mus musculus
L1210 [32] = assay: Antitumor activity (T/C) evaluated against L1210 leukemia from the median survival time of treated mice (T) over that of control mice (C) at a dose of 12 mg/kg as experiment 2; format: functional, Mus musculus
L1210 [33] = assay: Antitumor activity (T/C) evaluated against L1210 leukemia from the median survival time of treated mice (T) over that of control mice (C) at a dose of 12 mg/kg as experiment 3; format: functional, Mus musculus
L1210 [34] = assay: Antitumor activity (T/C) evaluated against L1210 leukemia from the median survival time of treated mice (T) over that of control mice (C) at a dose of 16 mg/kg as experiment 1; format: functional, Mus musculus
L1210 [35] = assay: Antitumor activity (T/C) evaluated against L1210 leukemia from the median survival time of treated mice (T) over that of control mice (C) at a dose of 16 mg/kg as experiment 2; format: functional, Mus musculus
L1210 [36] = assay: Antitumor activity (T/C) evaluated against L1210 leukemia from the median survival time of treated mice (T) over that of control mice (C) at a dose of 16 mg/kg as experiment 3; format: functional, Mus musculus
L1210 [37] = assay: Antitumor activity (T/C) evaluated against L1210 leukemia from the median survival time of treated mice (T) over that of control mice (C) at a dose of 2 mg/kg as experiment 1; format: functional, Mus musculus
L1210 [38] = assay: Antitumor activity (T/C) evaluated against L1210 leukemia from the median survival time of treated mice (T) over that of control mice (C) at a dose of 20 mg/kg as experiment 2; format: functional, Mus musculus
L1210 [39] = assay: Antitumor activity (T/C) evaluated against L1210 leukemia from the median survival time of treated mice (T) over that of control mice (C) at a dose of 24 mg/kg as experiment 2; format: functional, Mus musculus
L1210 [40] = assay: Antitumor activity (T/C) evaluated against L1210 leukemia from the median survival time of treated mice (T) over that of control mice (C) at a dose of 32 mg/kg as experiment 1; format: functional, Mus musculus
L1210 [41] = assay: In vivo activity against L1210 leukemia cells in mice at a dose of 12 mg/kg and expressed as percent weight change after 7 days as experiment 3; format: functional, Mus musculus
L1210 [42] = assay: In vivo activity against L1210 leukemia cells in mice at a dose of 16 mg/kg and expressed as percent weight change after 7 days as experiment 1.; format: functional, Mus musculus
L1210 [43] = assay: In vivo activity against L1210 leukemia cells in mice at a dose of 16 mg/kg and expressed as percent weight change after 7 days as experiment 2; format: functional, Mus musculus
L1210 [44] = assay: In vivo activity against L1210 leukemia cells in mice at a dose of 16 mg/kg and expressed as percent weight change after 7 days as experiment 3; format: functional, Mus musculus
L1210 [45] = assay: In vivo activity against L1210 leukemia cells in mice at a dose of 20 mg/kg and expressed as percent weight change after 7 days as experiment 2; format: functional, Mus musculus
L1210 [46] = assay: In vivo activity against L1210 leukemia cells in mice at a dose of 24 mg/kg and expressed as percent weight change after 7 days as experiment 2; format: functional, Mus musculus
L1210 [47] = assay: In vivo activity against L1210 leukemia cells in mice at a dose of 2 mg/kg and expressed as percent weight change after 7 days as experiment 1.; format: functional, Mus musculus
L1210 [48] = assay: In vivo activity against L1210 leukemia cells in mice at a dose of 32 mg/kg and expressed as percent weight change after 7 days as experiment 1.; format: functional, Mus musculus
L1210 [49] = assay: In vivo activity against L1210 leukemia cells in mice at a dose of 4 mg/kg and expressed as percent weight change after 7 days as experiment 1.; format: functional, Mus musculus
L1210 [50] = assay: In vivo activity against L1210 leukemia cells in mice at a dose of 4 mg/kg and expressed as percent weight change after 7 days as experiment 3; format: functional, Mus musculus
L1210 [51] = assay: In vivo activity against L1210 leukemia cells in mice at a dose of 8 mg/kg and expressed as percent weight change after 7 days as experiment 1.; format: functional, Mus musculus
L1210 [52] = assay: In vivo activity against L1210 leukemia cells in mice at a dose of 8 mg/kg and expressed as percent weight change after 7 days as experiment 3; format: functional, Mus musculus

## CN(Cc1cnc2nc(N)nc(N)c2n1)c1ccc(C(=O)NC(CCC(=O)Nc2cccc(C(=O)O)c2)C(=O)O)cc1 (stereo unspecified)
L1210 [1]
  IC50: 1.6 nM
[2]
  IC50: 2.2 nM
Dihydrofolate reductase
  IC50: 35 nM

## CN(Cc1cnc2nc(N)nc(N)c2n1)c1ccc(C(=O)NC(CCC(=O)Nc2cccc(B(O)O)c2)C(=O)O)cc1 (stereo unspecified)
L1210 [3]
  Survival range: 11 days
L1210 [4]
  Survival median: 12 days
L1210 [5]
  Survival median: 14 days
L1210 [1]
  IC50: 0.7 nM
L1210 [6]
  T/C: 138%
L1210 [7]
  Survival median: 11 days
L1210 [8]
  Survival range: 12 days
L1210 [9]
  Survival range: 9 days
L1210 [10]
  T/C: 150%
L1210 [11]
  T/C: 175%
L1210 [12]
  weight change %: 4%
L1210 [13]
  weight change %: 5%
L1210 [14]
  weight change %: 8%
Dihydrofolate reductase
  IC50: 30 nM

## Nc1nc(N)c2nc(CNc3ccc(C(=O)NC(CCCNC(=O)c4ccccc4C(=O)O)C(=O)O)cc3)cnc2n1 (stereo unspecified)
L1210 [15]
  Survival median: 15 days
L1210 [16]
  Survival median: 14 days
L1210 [17]
  Survival median: 17 days
L1210 [18]
  Survival median: 22 days
L1210 [19]
  Survival median: 18 days
L1210 [20]
  Survival median: 18 days
L1210 [21]
  Survival median: 24 days
L1210 [22]
  Survival median: >21 days
L1210 [23]
  Survival median: 13 days
L1210 [24]
  Survival median: 11 days
L1210 [25]
  T/C: 175%
L1210 [26]
  T/C: 213%
L1210 [27]
  T/C: 250%
L1210 [28]
  weight change %: 1%
L1210 [29]
  Survival median: 15 days
L1210 [30]
  Survival median: 20 days
L1210 [31]
  Survival range: 13 days
L1210 [32]
  T/C: 188%
L1210 [33]
  T/C: 275%
L1210 [34]
  T/C: 188% and 225%
L1210 [35]
  T/C: 225%
L1210 [36]
  T/C: 300%
L1210 [37]
  T/C: 163%
L1210 [38]
  T/C: >263%
L1210 [39]
  T/C: 250%
L1210 [40]
  T/C: 138%
L1210 [41]
  weight change %: 2%
L1210 [42]
  weight change %: -5%
L1210 [43]
  weight change %: 1%
L1210 [44]
  body weight change %: -3%
L1210 [45]
  weight change %: -2%
L1210 [46]
  weight change %: -3%
L1210 [47]
  weight change %: -4%
L1210 [48]
  weight change %: -11%
L1210 [49]
  weight change %: -3%
L1210 [50]
  weight change %: 8%
L1210 [51]
  weight change %: 4%
L1210 [52]
  weight change %: 4%
[2]
  IC50: 48 nM
